Measurements: patent publication US20230240994A1, “MEDICAMENT-CONTAINING HOLLOW PARTICLE” (Sumitomo Pharma Co., Ltd., priority 2012, published 2023)
Structures can show the parent of a compound that is named as a salt.

Assay: Particle size distribution by laser diffraction particle size analyzer (volume basis)
Type: physicochemical
Conditions: medicament used (raw material), laser diffraction SALD-3000J
Procedure: In the present invention, the “average particle size” means cumulative 50% particle size D50 in the volume based measurement of powder particles. Such average particle size is measured by a laser diffraction particle size analyzer (e.g., Particle Viewer manufactured by POWREX CORPORATION, or SALD-3000J manufactured by Shimadzu Corporation, or HELOS&RODOS manufactured by Sympatec GmbH) by volume basis.
The particle size distribution of medicament, polymer, other additive, a mixed powder of the medicament and other additive, and the obtained medicament-containing particle was measured by a laser diffraction particle size analyzer (manufactured by POWREX CORPORATION, Particle Viewer) or laser diffraction particle size analyzer (manufactured by Shimadzu Corporation, SAID-3000J) by volume basis.

SMILES | particle size distribution D10 [μm] | particle size distribution D50 [μm] | particle size distribution D90 [μm]
NS(=O)(=O)Cc1noc2ccccc12 [Compound A (D50: 2.7 μm)] | 0.7 | 2.7 | 5.6
NS(=O)(=O)Cc1noc2ccccc12 [Compound A (D50: 6.9 μm)] | 1.0 | 6.9 | 26.8
NS(=O)(=O)Cc1noc2ccccc12 [Compound A (D50: 9.9 μm)] | 1.2 | 9.9 | 42.9
NS(=O)(=O)Cc1noc2ccccc12 [Compound A, 1,2-benzisoxazole-3-methanesulfonamide, reference compound] | 0.7 | 2.7 | 5.6

Same assay, conditions: micronized product of Compound A used in Comparative Example 3-2

SMILES | particle size distribution D10 [μm] | particle size distribution D50 [μm] | particle size distribution D90 [μm]
NS(=O)(=O)Cc1noc2ccccc12 [Compound A, 1,2-benzisoxazole-3-methanesulfonamide, reference compound] | 3.2 | 13.3 | 40.8

Same assay, conditions: starting material as used (medicament, polymer, other additive, mixed powder); volume basis

SMILES | particle size distribution D10 [μm] | particle size distribution D50 [μm] | particle size distribution D90 [μm]
NS(=O)(=O)Cc1noc2ccccc12 [Compound A, 1,2-benzisoxazole-3-methanesulfonamide, reference compound] | 0.7 | 2.7 | 5.6
Cl.O=C1[C@@H]2[C@H]3CC[C@H](C3)[C@@H]2C(=O)N1C[C@@H]1CCCC[C@H]1CN1CCN(c2nsc3ccccc23)CC1 [Compound B, (3aR,4S,7R,7aS)-2-{(1R,2R)-2-[4-(1,2-benzisothiazol-3-yl)piperazin-1-ylmethyl]cyclohexylmethyl}hexahydro-4,7-methano-2H-isoindole-1,3-dione hydrochloride, reference compound] | 0.5 | 1.5 | 3.3
Nc1ccc(O)c(C(=O)O)c1 [Compound D, 5-amino-2-hydroxybenzoic acid, reference compound] | 1.3 | 4.6 | 12.7
C[C@@H](c1ccc(-c2ccccc2)c(F)c1)c1cc(N=C(N)N2CCOCC2)on1 [Compound E, 3-[(1S)-1-(2-fluorobiphenyl-4-yl)ethyl]-5-{[amino(morpholin-4-yl)methylene]amino}isoxazole] | 1.3 | 3.2 | 6.3
COc1cccc(-c2nccc3[nH]c(=O)c(-c4noc(C)n4)cc23)c1 [Compound F, 5-(3-methoxyphenyl)-3-(5-methyl-1,2,4-oxadiazol-3-yl)-2-oxo-1,2-dihydro-1,6-naphthyridine] | 0.6 | 2.5 | 5.0
COc1ccc2c(c1)c(CC(=O)O)c(C)n2C(=O)c1ccc(Cl)cc1 [Compound G, 1-(4-chlorobenzoyl)-5-methoxy-2-methyl-1-H-indole-3-acetic acid, reference compound] | 0.8 | 3.1 | 8.1
OC[C@@H](O)[C@@H](O)[C@H](O)[C@H](O)CO [D-mannitol (JM pulverized product), D-mannitol] | 0.5 | 2.0 | 4.2
OC[C@@H](O)[C@@H](O)[C@H](O)[C@H](O)CO [D-mannitol (PEARLITOL 50C), D-mannitol] | 6.9 | 47.0 | 125.2
CC(=O)Nc1ccc(O)cc1 [acetaminophen, reference compound] | 2.8 | 11.6 | 46.1
OC[C@H]1O[C@@H](O[C@H]2[C@H](O)[C@@H](O)C(O)O[C@@H]2CO)[C@H](O)[C@@H](O)[C@H]1O (stereo partly drawn) [lactose (Pharmatose 200M), lactose] | 4.0 | 48.7 | 129.0
O=C([O-])[O-].[Mg+2] [magnesium carbonate (light), magnesium carbonate] | 0.9 | 4.0 | 10.6
CCOc1cc(N)c(Cl)cc1C(=O)NCC1CN(Cc2ccc(F)cc2)CCO1 (stereo not drawn) [mosapride citrate, reference compound] | 2.3 | 9.2 | 30.6
